US20260191991A1, “COMPSTATIN ANALOGS FOR VECTOR-BASED THERAPY” (AMYNDAS PHARMACEUTICALS US LLC, priority 2022, published 2026)
In brackets after ≈: the same amount, converted by molar mass. Where a SMILES comes first, the peptide text is derived from it. Bridges are numbered along the chain shown (N, C = ends). Where no end group is shown, it is not given here.

Columns and labels:
C3 [1] = biological target: T1, C3 (Homo sapiens, UniProt P01024); details: background statement; cited from earlier work
Target sequence in this assay (P01024 23-1663): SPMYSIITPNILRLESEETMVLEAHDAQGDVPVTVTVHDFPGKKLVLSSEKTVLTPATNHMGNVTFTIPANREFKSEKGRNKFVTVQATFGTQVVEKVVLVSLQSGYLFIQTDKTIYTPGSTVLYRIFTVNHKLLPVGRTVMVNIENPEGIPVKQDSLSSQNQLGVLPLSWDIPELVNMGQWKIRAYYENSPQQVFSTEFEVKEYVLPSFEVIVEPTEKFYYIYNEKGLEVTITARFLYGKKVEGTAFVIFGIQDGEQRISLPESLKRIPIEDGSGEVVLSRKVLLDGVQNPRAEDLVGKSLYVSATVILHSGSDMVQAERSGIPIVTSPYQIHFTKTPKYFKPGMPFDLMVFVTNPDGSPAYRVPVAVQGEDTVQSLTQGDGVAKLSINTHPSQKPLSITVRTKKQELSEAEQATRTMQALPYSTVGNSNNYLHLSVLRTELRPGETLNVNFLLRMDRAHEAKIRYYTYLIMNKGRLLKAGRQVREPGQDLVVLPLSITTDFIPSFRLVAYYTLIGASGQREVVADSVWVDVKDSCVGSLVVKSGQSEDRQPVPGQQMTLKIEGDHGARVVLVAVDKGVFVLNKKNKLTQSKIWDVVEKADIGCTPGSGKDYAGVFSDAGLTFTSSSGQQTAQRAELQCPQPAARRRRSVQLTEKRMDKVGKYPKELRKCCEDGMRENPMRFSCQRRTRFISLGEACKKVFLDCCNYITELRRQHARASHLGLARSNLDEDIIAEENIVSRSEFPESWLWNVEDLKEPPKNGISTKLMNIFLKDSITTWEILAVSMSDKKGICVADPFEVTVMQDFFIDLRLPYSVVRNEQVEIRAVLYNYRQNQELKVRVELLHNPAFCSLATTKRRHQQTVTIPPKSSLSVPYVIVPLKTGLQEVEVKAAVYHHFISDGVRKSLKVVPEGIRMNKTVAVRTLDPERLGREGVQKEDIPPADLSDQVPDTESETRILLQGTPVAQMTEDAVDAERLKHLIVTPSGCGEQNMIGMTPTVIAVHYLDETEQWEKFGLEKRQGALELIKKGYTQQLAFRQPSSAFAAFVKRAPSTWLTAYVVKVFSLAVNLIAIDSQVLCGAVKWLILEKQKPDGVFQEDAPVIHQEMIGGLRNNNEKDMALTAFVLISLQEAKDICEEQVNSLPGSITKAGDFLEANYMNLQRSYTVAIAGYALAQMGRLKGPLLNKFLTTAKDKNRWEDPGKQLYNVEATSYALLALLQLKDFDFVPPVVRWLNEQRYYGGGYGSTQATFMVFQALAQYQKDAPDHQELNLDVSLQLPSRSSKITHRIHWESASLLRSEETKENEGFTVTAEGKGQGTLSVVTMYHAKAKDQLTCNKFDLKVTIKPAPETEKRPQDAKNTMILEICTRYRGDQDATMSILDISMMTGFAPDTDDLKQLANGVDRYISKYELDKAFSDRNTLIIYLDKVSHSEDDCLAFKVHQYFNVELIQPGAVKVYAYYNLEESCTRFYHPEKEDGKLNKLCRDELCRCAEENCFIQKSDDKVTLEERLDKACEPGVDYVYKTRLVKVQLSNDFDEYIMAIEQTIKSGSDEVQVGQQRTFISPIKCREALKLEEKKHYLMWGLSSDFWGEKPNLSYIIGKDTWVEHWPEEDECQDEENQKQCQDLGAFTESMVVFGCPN

[2] = Solubility in DPBS (Table 1); type: physicochemical; details: Dulbecco's phosphate buffered saline; measured as OD (280 nm) at saturation
C3 [3] = biological target: T1, C3; test: KD (Table 1); type: binding
[4] = system: laser-induced choroidal neovascularization (CNV); test: Laser-induced choroidal neovascularization, nonhuman primate model of wet-type AMD, fluorescein angiography lesion grading; type: in vivo, macaque; details: for CNV lesion size, % of baseline: third Cp50-treated animal (K-2434)
Experimental: The effects of the compstatin analogue Cp50 (described above) were compared vs. vehicle, in a nonhuman primate model of wet-type age-related macular degeneration (AMD). In this model, laser-induced choroidal neovascularization (CNV) was performed in the eyes of macaques.
Laser-induced CNV was performed in both eyes of the macaques, as described below. Two weeks (Day 14) after laser photocoagulation, laser lesions were graded (Grade 1-4) via fluorescein angiograms (FA).
Under ketamine (15 mg/kg, i.m.) and xylazine (2 mg/kg, i.m), on Day 15, the eyes were intravitreally (IVT) injected with either vehicle, or compstatin Cp50. FA measurements were performed on weeks 4, 6, 8 10 and 12 (total of five times), following CNV.
Briefly, under light ketamine (10 mg/kg, i.m.) anesthesia, the pupils were dilated with tropicamide/phenylephrine (Mydrin-P® ophthalmic solution; Santen Pharmaceutical Co., Osaka, Japan). For the laser treatment, the macaques were anesthetized with a combination of ketamine (15 mg/kg, i.m.; Daiichi Sankyo Propharma Co., Tokyo, Japan) and xylazine (2 mg/kg, i.m.; Bayer Yakuhin, Osaka, Japan). A green laser (900 mW output; Green Scan Laser Photocoagulator, GYC-500, Nidek, Co., Gamagori, Japan) was applied to eight spots (about 75 μm, 0.1 s duration) around the macula in a grid pattern. The extent of CNV lesion was assessed using fluorescence angiography (FA) at predetermined time points.
On the day of lesion grading, under light ketamine (10 mg/kg, i.m.) anesthesia, the pupils were dilated with tropicamide/phenylephrine (Mydrin-P® ophthalmic solution), and then the macaques were anesthetized with a combination of ketamine (15 mg/kg, i.m.) and xylazine (2 mg/kg, i.m).
Fluorescence Angiography (FA) was used to check the extent of CNV in the back of the eye. Ten percent sodium fluorescein (Fluorescite®; 10 mg/kg, i.v.; Novartis, Tokyo, Japan) was injected and a fundus camera took pictures of the back of the eye at about 1, 3, and 5 min after i.v. injection.
Following randomization, under ketamine (15 mg/kg, i.m.) and xylazine (2 mg/kg, i.m), on Day 15, the eyes were intravitreally (IVT) injected with 50 μl of either vehicle, or Cp50. Before IVT injection, eyes were treated twice daily for three days with levofloxacin hydrate (0.5%; Cravit®, Santen Pharmaceutical Co.).
Under anesthesia, a solution of tropicamide/phenylephrine HCl (Mydrin®-P), levofloxacin hydrate (0.5%; Santen Pharmaceutical Co.), and oxybuprocaine HCl (0.4%; Santen Pharmaceutical Co.) was instilled before dosing.

C3 protein = biological target: T2, C3 protein (UniProt P01024 23-1663, limits assumed); test: method not stated (Table 1; target C3 implied)
T2 construct: also called complement component C3; plasma protein C3
T2 sequence (P01024 23-1663 limits assumed): as the sequence (P01024 23-1663) above

CC[C@H](C)[C@H](N)C(=O)N[C@H]1CSSC[C@@H](C(=O)N[C@H](C(N)=O)[C@@H](C)O)NC(=O)[C@H](CCCN=C(N)N)NC(=O)[C@H](Cc2cnc[nH]2)NC(=O)[C@H](Cc2cnc[nH]2)NC(=O)CNC(=O)[C@H](Cc2c[nH]c3ccccc23)NC(=O)[C@H](CC(=O)O)NC(=O)[C@H](CCC(N)=O)NC(=O)[C@H](C(C)C)NC(=O)[C@H](C(C)C)NC1=O [Compstatin]
binding affinity for C3 (C3 [1]): micromolar

CC[C@H](C)[C@H](NC(=O)[C@H](N)Cc1ccc(O)cc1)C(=O)N[C@H]1CSSC[C@@H](C(=O)N(C)[C@H](C(N)=O)[C@@H](C)CC)NC(=O)[C@H](CCCNC(=N)N)NC(=O)[C@H](Cc2c[nH]cn2)NC(=O)[C@H](C)NC(=O)CN(C)C(=O)[C@H](Cc2c[nH]c3ccccc23)NC(=O)[C@H](CC(=O)O)NC(=O)[C@H](CCC(N)=O)NC(=O)[C@H](Cc2cn(C)c3ccccc23)NC(=O)[C@H](C(C)C)NC1=O [Cp40, dTyr-Ile-[Cys-Val-1MeTrp-Gln-Asp-Trp-Sar-Ala-His-Arg-Cys]-mIle, reference compound]
Solubility DPBS [2]: 0.8 mg/mL (≈ 0.447 mM)

CC[C@H](C)[C@H](NC(=O)[C@@H]1CSSC[C@H](NC(=O)[C@@H](NC(=O)[C@@H](N)Cc2ccc(O)cc2)[C@@H](C)CC)C(=O)N[C@@H]([C@@H](C)CC)C(=O)N[C@@H](Cc2c[nH]c3ccccc23)C(=O)N[C@@H](CCC(N)=O)C(=O)N[C@@H](CC(=O)O)C(=O)N[C@@H](Cc2c[nH]c3ccccc23)C(=O)NCC(=O)N[C@@H](C)C(=O)N[C@@H](Cc2c[nH]cn2)C(=O)N[C@@H](CCCNC(=N)N)C(=O)N1)C(=O)N[C@@H](CCCCN)C(=O)N[C@@H](CCCCN)C(=O)N[C@@H](CCCCN)C(=O)O [Cp50] (HELM PEPTIDE1{Y.I.C.I.W.Q.D.W.G.A.H.R.C.I.K.K.K}$PEPTIDE1,PEPTIDE1,3:R3-13:R3$$$V2.0; N-terminus and C-terminus assumed)
Kd (C3 [3]): 0.5 nM | solubility [2]: > 250 mg/mL | mean Grade 4 lesion compared to eyes treated with vehicle ([4]; Weeks 4, 6, 8 and 12, intravitreal injection on Day 15): reduced | CNV lesion size, % of baseline ([4]; by week 6): 50% | CNV lesion size, % of baseline ([4]; by week 12): 25% | CNV lesion size ([4]; two Cp50-treated eyes, as early as week 4 post laser-induced CNV): decline | reduction of Grade 4 lesion ratios ([4]; two Cp50-treated eyes, from week 6 onwards until week 12): 100%

CC[C@H](C)[C@H](NC(=O)[C@@H]1CSSC[C@H](NC(=O)[C@@H](NC(=O)[C@@H](N)Cc2ccc(O)cc2)[C@@H](C)CC)C(=O)N[C@@H]([C@@H](C)CC)C(=O)N[C@@H](Cc2c[nH]c3ccccc23)C(=O)N[C@@H](CCC(N)=O)C(=O)N[C@@H](CC(=O)O)C(=O)N[C@@H](Cc2c[nH]c3ccccc23)C(=O)NCC(=O)N[C@@H](CCC(=O)O)C(=O)N[C@@H](Cc2c[nH]cn2)C(=O)N[C@@H](CCCNC(=N)N)C(=O)N1)C(=O)N[C@@H](CCCCN)C(=O)N[C@@H](CCCCN)C(=O)N[C@@H](CCCCN)C(=O)O [Cp51] (HELM PEPTIDE1{Y.I.C.I.W.Q.D.W.G.E.H.R.C.I.K.K.K}$PEPTIDE1,PEPTIDE1,3:R3-13:R3$$$V2.0; N-terminus and C-terminus assumed)
solubility [2]: > 250 mg/mL

B1: Cp51 (peptide)
peptide: YICIWQDWGEHRCIKKK
modifications: disulfide 3-13
Kd (C3 protein): 1 nM
